# Test results published in patent US20220235032A1 (GENFLEET THERAPEUTICS (SHANGHAI) INC., priority 2019, published 2022).
# System: U937 cells
# Assay: Inhibitory activity against programmed necroptosis of U937 cells induced by TNF-α and Q-VD-Oph (CellTiter-Glo)
# Type: cell-based
# Settings: Homo sapiens, U-937, 48 h, Celltiter-Glo survival rate
# Procedure: The U937 cell strain which was used in the following Testing Examples was derived from ATCC, No.: CRL-1593.2, batch No.: 63479999, culture medium: RPMI-1640+10% FBS.
# The compound to be tested was dissolved in DMSO, and diluted with DMSO to a series of gradient concentrations. The U937 cells were inoculated in a 384-well plate at 5000/well. The compound at respective concentration was added to each of the wells, and was mixed with the cells homogeneously. Human TNF-α and Q-VD-Oph were added simultaneously to induce programmed necroptosis of the cells. The cells were placed in the incubator at 37° C. and 5% CO2 for further culture of 48 h. Celltiter-Glo reagent was used for detection. After adequate pyrolysis reaction, the chemiluminescence readout value was recorded by a microplate reader. The survival rate was calculated from the detection results using the equation as follows: SR (%)=(RLU compound−RLU blank)/(RLU high control−RLU blank)×100%. The survival rate was plotted against the final concentration of respective compound using a 4-parameter fitting to calculate the inhibitory C50 of the compound against programmed necroptosis of cells induced by TNF-α.
row,Structure (SMILES),IC50 [nM]
1,"NC(=O)c1ccnc(N2CC3CC(C(=O)N4N=CCC4c4cncc(F)c4)CC3C2)n1 (racemic) [Compound Z-34, 2-(5-(5-(5-fluoropyridin-3-yl)-4,5-dihydro-1H-pyrazole-1-carbonyl)hexahydrocyclopenta[c]pyrrol-2(1H)-yl)pyrimidine-4-carboxamide]",380
2,"COc1cc(N2CCC(C(=O)N3N=CCC3c3ccccc3)C3(CC3)C2)ncn1 (racemic) [Compound Z-40-1, (5-(6-methoxypyrimidin-4-yl)-5-aza-spiro[2.5]oct-8-yl)(5-phenyl-4,5-dihydro-1H-pyrazol-1-yl) ketone]",9
3,"COc1nccc(N2CCC(C(=O)N3N=CCC3c3ccccc3)C3(CC3)C2)n1 (racemic) [Compound Z-41-1, (5-(2-methoxypyrimidin-4-yl)-5-aza-spiro[2.5]oct-8-yl)(5-phenyl-4,5-dihydro-1H-pyrazol-1-yl) ketone]",5
4,"NC(=O)c1cc(N2CCC(C(=O)N3N=CCC3c3ccccc3)C3(CC3)C2)ncn1 (racemic) [Compound Z-43-2, 6-(8-(5-phenyl-4,5-dihydro-1H-pyrazole-1-carbonyl)-5-aza-spiro[2.5]oct-5-yl)pyrimidine-4-carboxamide]",45
5,"NC(=O)c1cc(N2CCC(C(=O)N3N=CCC3c3cc(F)cc(F)c3)C3(CC3)C2)ncn1 (racemic) [Compound Z-44-2, 6-(8-(5-(3,5-difluorophenyl)-4,5-dihydro-1H-pyrazole-1-carbonyl)-5-aza-spiro[2.5]oct-5-yl)pyrimidine-4-carboxamide]",22
6,"NC(=O)c1ccnc(N2CCC(C(=O)N3N=CCC3c3cc(F)cc(F)c3)C3(CC3)C2)n1 (racemic) [Compound Z-46-1, 2-(8-(5-(3,5-difluorophenyl)-4,5-dihydro-1H-pyrazole-1-carbonyl)-5-aza-spiro[2.5]oct-5-yl)pyrimidine-4-carboxamide]",4
7,"NC(=O)c1cc(N2CCC(C(=O)N3N=CCC3c3cncc(F)c3)C3(CC3)C2)ncn1 (racemic) [Compound Z-49-1, 6-(8-(5-(5-fluoropyridin-3-yl)-4,5-dihydro-1H-pyrazole-1-carbonyl)-5-aza-spiro[2.5]oct-5-yl)pyrimidine-4-carboxamide]",279

# Same assay, conditions: human TNF-α + Q-VD-Oph induced necroptosis, 48 h, Celltiter-Glo survival rate
row,Structure (SMILES),IC50 [nM]
1,"N#Cc1cc(N2CCC(C(=O)N3CCC(c4cc(F)cc(F)c4)=N3)C3(CC3)C2)ncn1 (racemic) [Compound Z-25, 6-(8-(3-(3,5-difluorophenyl)-4,5-dihydro-1H-pyrazole-1-carbonyl)-5-aza-spiro[2.5]oct-5-yl)pyrimidine-4-carbonitrile]",4
2,"N#Cc1cc(N2CCC(C(=O)N3CCC(c4cc(F)cc(F)c4)=N3)C3(CC3)C2)ncn1 (racemic) [Compound Z-26, 6-(8-(3-(3,5-difluorophenyl)-4,5-dihydro-1H-pyrazole-1-carbonyl)-5-aza-spiro[2.5]oct-5-yl)pyrimidine-4-carbonitrile]",244
3,"N#Cc1cc(N2CCC(C(=O)N3N=CCC3c3cncc(F)c3)C3(CC3)C2)ncn1 (racemic) [Compound Z-48-1, 6-(8-(5-(5-fluoropyridin-3-yl)-4,5-dihydro-1H-pyrazole-1-carbonyl)-5-aza-spiro[2.5]oct-5-yl)pyrimidine-4-carbonitrile]",30
4,"N#Cc1cc(N2CCC(C(=O)N3N=CCC3c3cncc(F)c3)C3(CC3)C2)ncn1 (racemic) [Compound Z-48-2, 6-(8-(5-(5-fluoropyridin-3-yl)-4,5-dihydro-1H-pyrazole-1-carbonyl)-5-aza-spiro[2.5]oct-5-yl)pyrimidine-4-carbonitrile]",361
5,"N#Cc1cc(N2CCC(C(=O)N3N=CCC3c3cc(F)ccc3F)C3(CC3)C2)ncn1 (racemic) [Compound Z-52-1, 6-(8-(5-(2,5-difluorophenyl)-4,5-dihydro-1H-pyrazole-1-carbonyl)-5-aza-spiro[2.5]oct-5-yl)pyrimidine-4-carbonitrile]",4
